Laboratory results from patent US9174980B2, “Heterocyclic compounds as inhibitors of leukotriene production” (Boehringer Ingelheim International GmbH, priority 2012, dated 2015).

Legend:
[1] = biological target: T1, recombinant human FLAP protein (Homo sapiens, UniProt P20292); assay: FLAP binding assay (Scintillation Proximity Assay, displacement of [125I]L-691,831); conditions: read-out: Human FLAP SPA Binding (IC50 nM)
T1 construct: made in house; host or cells: Sf9 insect cells (membrane fraction, 100,000 x g pellet)
T1 sequence (P20292 1-161): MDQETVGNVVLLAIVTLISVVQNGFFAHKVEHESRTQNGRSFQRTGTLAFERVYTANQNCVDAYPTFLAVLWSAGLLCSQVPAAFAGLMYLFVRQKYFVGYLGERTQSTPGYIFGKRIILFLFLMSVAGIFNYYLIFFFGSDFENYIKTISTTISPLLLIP
In short: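 Membranes from sf9 cells expressing recombinant human FLAP (5 μg/well) on WGA SPA beads were incubated with compound and 0.08 nM [125I]L-691,831 in Tris pH 7.5 binding buffer, shaken 2 h. Displacement read by scintillation proximity; non-specific binding set with 10 μM unlabelled L-691,831.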

[2] = tested on: synthesis of LTB4 in human whole blood; assay: Human whole blood assay (calcimycin-stimulated LTB4 synthesis); type: cell-based; conditions: Homo sapiens; read-out: Human Whole Blood LTB4 Assay for FLAP (IC50 nM)
In short: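 Heparinized human whole blood preincubated with compound 15 min at 37 °C, then stimulated with calcimycin (20 μM final) for 30 min at 37 °C. Plasma LTB4 measured after low-speed centrifugation by antibody-based homogeneous time-resolved fluorescence.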

| IC50 [1] [nM] | IC50 [2] [nM] | Compound |
| --- | --- | --- |
| 1.1 | 69 | CC(C)C(C)(c1ccc(-c2cnc(N)nc2)cc1)c1c[nH]c2cccc(F)c12 (centres unmarked) [Example 58, 5-{4-[2-(4-fluoro-1H-indol-3-yl)-3-methylbutan-2-yl]phenyl}pyrimidin-2-amine] |
| 0.86 | 170 | CC(C)C(C)(c1ccc(-c2cnc(N)nc2)cc1)c1c[nH]c2cc(F)ccc12 (centres unmarked) [Example 60, 5-{4-[2-(6-fluoro-1H-indol-3-yl)-3-methylbutan-2-yl]phenyl}pyrimidin-2-amine] |
| 18 | 2300 | CC(C)C(C)(c1ccc(-c2cnc(N)nc2)cc1)c1cc2c(F)cccc2[nH]1 (centres unmarked) [Example 62, 5-{4-[2-(4-fluoro-1H-indol-2-yl)-3-methybutan-2-yl]phenyl}pyrimidin-2-amine] |
| 0.57 | 1800 | CC(C)C(C)(c1ccc(-c2cnc(N)nc2)cc1)c1c[nH]c2cc(-c3nnc(N)o3)ccc12 (centres unmarked) [Example 65, 5-[3-[1-[4-(2-aminopyrimidin-5-yl)phenyl]-1,2-dimethyl-propyl]-1H-indol-6-yl]-1,3,4-oxadiazol-2-amine] |
| 3 | 340 | CC(C)C(C)(c1ccc(-c2cnc(N)nc2)cc1)c1c[nH]c2cc(F)c(F)cc12 (centres unmarked) [Example 67, 5-{4-[2-(5,6-difluoro-1H-indol-3-yl)-3-methylbutan-2-yl]phenyl}pyrimidin-2-amine] |
| 1 | > 5000 | CC(C)C(C)(c1ccc(-c2cnc(N)nc2)cc1)c1c[nH]c2cc(-c3nnn[nH]3)ccc12 (centres unmarked) [Example 68, 5-(4-[3-methyl-2-[6-(1H-tetrazol-5-yl)-1H-indol-3-yl]butan-2-yl}phenyl)pyrimidin-2-amine] |
| 0.9 | 240 | COC(=O)c1ccc2c(C(C)(c3ccc(-c4cnc(N)nc4)cc3)C(C)C)c[nH]c2c1 (centres unmarked) [Example 70, methyl 3-{2-[4-(2-aminopyrimidin-5-yl)phenyl]-3-methylbutan-2-yl}-1H-indole-6-carboxylate] |
| 380 | > 5000 | Nc1ncc(-c2ccc(C3(c4nc5ccccc5[nH]4)CCOCC3)cc2)cn1 [Example 75, 5-{4-[4-(1H-benzimidazol-2-yl)tetrahydro-2H-pyran-4-yl]phenyl}pyrimidin-2-amine] |
| 1.7 | 640 | CC(C)C(C)(c1ccc(-c2cnc(N)nc2)cc1)c1c[nH]c2cc(C(=O)N3CCOCC3)ccc12 (centres unmarked) [Example 77, (3-{2-[4-(2-aminopyrimidin-5-yl)phenyl]-3-methylbutan-2-yl}-1H-indol-6-yl)(morpholin-4-yl)methanone] |
| 5.1 | 370 | Nc1ncc(-c2ccc(C3(c4c[nH]c5ccccc45)CCC3)cc2)cn1 [Example 81, 5-{4-[1-(1H-indol-3-yl)cyclobutyl]phenyl}pyrimidin-2-amine] |
| 0.7 | 3000 | CC(C)C(C)(c1ccc(-c2cnc(N)nc2)cc1)c1c[nH]c2c(C(=O)O)cccc12 (centres unmarked) [Example 84, 3-[1-[4-(2-aminopyrimidin-5-yl)phenyl]-1,2-dimethyl-propyl]-1H-indole-7-carboxylic acid] |

The next lines start with the molecule.

| Compound | IC50 [1] [nM] | IC50 [2] [nM] |
| --- | --- | --- |
| CC(C)C(C)(c1ccc(-c2cnc(N)nc2)cc1)c1c[nH]c2c(F)cccc12 (centres unmarked) [Example 59, 5-{4-[2-(7-fluoro-1H-indol-3-yl)-3-methylbutan-2-yl]phenyl}pyrimidin-2-amine] | 0.65 | 330 |
| CC(C)C(C)(c1ccc(-c2cnc(N)nc2)cc1)c1cc2ccc(F)cc2[nH]1 (centres unmarked) [Example 61, 5-{4-[2-(6-fluoro-1H-indol-2-yl)-3-methylbutan-2-yl]phenyl}pyrimidin-2-amine] | 9.3 | 1200 |
| CC(C)C(C)(c1ccc(-c2cnc(N)nc2)cc1)c1c[nH]c2ccc(F)cc12 (centres unmarked) [Example 63, 5-{4-[2-(5-fluoro-1H-indol-3-yl)-3-methylbutan-2-yl]phenyl}pyrimidin-2-amine] | 3 | 440 |
| CC(C)C(C)(c1ccc(OCc2ccccn2)cc1)c1c[nH]c2cc(C(=O)O)ccc12 (centres unmarked) [Example 64, 3-[1,2-dimethyl-1-[4-(2-pyridylmethoxy)phenyl]propyl]-1H-indole-6-carboxylic acid] | 0.85 | 1400 |
| CC(C)C(C)(c1ccc(-c2ccc(N)nc2)cc1)c1c[nH]c2ccccc12 (centres unmarked) [Example 66, 5-{4-[2-(1H-indol-3-yl)-3-methylbutan-2-yl]phenyl}pyridin-2-amine] | 1.2 | 170 |
| Nc1ncc(-c2ccc(C3(c4nnc(-c5ccccc5)[nH]4)CCOCC3)cc2)cn1 [Example 69, 5-{4-[4-(5-phenyl-4H-1,2,4-triazol-3-yl)tetrahydro-2H-pyran-4-yl]phenyl}pyrimidin-2-amine] | 120 | 3100 |
| CC(C)C(C)(c1ccc(-c2ccc(N)nc2)cc1)c1c[nH]c2cc(-c3nnc(N)o3)ccc12 (centres unmarked) [Example 71, 5-(4-{2-[6-(5-amino-1,3,4-oxadiazol-2-yl)-1H-indol-3-yl]-3-methylbutan-2-yl}phenyl)pyridin-2-amine] | 0.72 | 1900 |
| Cn1ccc(C(O)(c2ccc(-c3cnc(N)nc3)cc2)C(C)(C)C)n1 (centres unmarked) [Example 72, 1-[4-(2-aminopyrimidin-5-yl)phenyl]-2,2-dimethyl-1-(1-methyl-1H-pyrazol-3-yl)propan-1-ol] | 110 | 2100 |
| CC(C)C(C)(c1ccc(-c2cnc(N)nc2)cc1)c1cn(Cc2nnn[nH]2)c2ccccc12 (centres unmarked) [Example 73, 5-(4-{3-methyl-2-[1-(1H-tetrazol-5-ylmethyl)-1H-indol-3-yl]butan-2-yl}phenyl)pyrimidin-2-amine] | 1.3 | > 5000 |
| Nc1ncc(-c2ccc(C3(c4n[nH]c(-c5cccnc5)n4)CCOCC3)cc2)cn1 [Example 74, 5-(4-{4-[5-(pyridin-3-yl)-1H-1,2,4-triazol-3-yl]tetrahydro-2H-pyran-4-yl}phenyl)pyrimidin-2-amine] | 780 | 3500 |
| CC(C)C(C)(c1ccc(-c2cnc(N)nc2)cc1)c1c[nH]c2c(-c3nnc(N)o3)cccc12 (centres unmarked) [Example 76, 5-(4-{2-[7-(5-amino-1,3,4-oxadiazol-2-yl)-1H-indol-3-yl]-3-methylbutan-2-yl}phenyl)pyrimidin-2-amine] | 1.1 | 250 |
| CC(C)C(C)(c1ccc(-c2cnc(N)nc2)cc1)c1c[nH]c2cc(C(=O)N3CC(O)C3)ccc12 (centres unmarked) [Example 78, (3-{2-[4-(2-aminopyrimidin-5-yl)phenyl]-3-methylbutan-2-yl}-1H-indol-6-yl)(3-hydroxyazetidin-1-yl)methanone] | 1.6 | > 5000 |
| CC(C)C(C)(c1ccc(-c2cnc(N)nc2)cc1)c1c[nH]c2cc(C(=O)N(C)CCO)ccc12 (centres unmarked) [Example 79, 3-{2-[4-(2-aminopyrimidin-5-yl)phenyl]-3-methylbutan-2-yl}-N-(2-hydroxyethyl)-N-methyl-1H-indole-6-carboxamide] | 8.5 | 2600 |
| CC(C)C(C)(c1ccc(-c2cnc(N)nc2)cc1)c1c[nH]c2cc(C(=O)N3CCC(O)C3)ccc12 (centres unmarked) [Example 80, (3-{2-[4-(2-aminopyrimidin-5-yl)phenyl]-3-methylbutan-2-yl}-1H-indol-6-yl)(3-hydroxypyrrolidin-1-yl)methanone] | 1.6 | > 5000 |
| Nc1ncc(-c2ccc(C3(c4c[nH]c5cc(F)ccc45)CCC3)cc2)cn1 [Example 82, 5-{4-[1-(6-fluoro-1H-indol-3-yl)cyclobutyl]phenyl}pyrimidin-2-amine] | 0.94 | 160 |
| Nc1ncc(-c2ccc(C3(c4c[nH]c5ccc(F)cc45)CCC3)cc2)cn1 [Example 83, 5-{4-[1-(5-fluoro-1H-indol-3-yl)cyclobutyl]phenyl}pyrimidin-2-amine] | 5 | 460 |
| CC(C)C(C)(c1ccc(-c2cnc(N)nc2)cc1)c1c[nH]c2cc(S(C)(=O)=O)ccc12 (centres unmarked) [Example 85, 5-(4-{3-methyl-2-[6-(methylsulfonyl)-1H-indol-3-yl]butan-2-yl}phenyl)pyrimidin-2-amine] | 0.97 | 300 |
| Cc1[nH]c2ccccc2c1C(C)(c1ccc(-c2cnc(N)nc2)cc1)C(C)C (centres unmarked) [Example 86, 5-{4-[3-methyl-2-(2-methyl-1H-indol-3-yl)butan-2-yl]phenyl}pyrimidin-2-amine] | 1.4 | 230 |
| Nc1ncc(-c2ccc(C3(c4c[nH]c5c(F)cccc45)CCC3)cc2)cn1 [Example 87, 5-{4-[1-(7-fluoro-1H-indol-3-yl)cyclobutyl]phenyl}pyrimidin-2-amine] | 1.6 | 400 |
| Nc1ncc(-c2ccc(C3(c4c[nH]c5ccccc45)CCCC3)cc2)cn1 [Example 88, 5-{4-[1-(1H-indol-3-yl)cyclopentyl]phenyl}pyrimidin-2-amine] | 1.7 | 430 |
| Nc1ncc(-c2ccc(C3(c4c[nH]c5ccccc45)CCCCC3)cc2)cn1 [Example 89, 5-{4-[1-(1H-indol-3-yl)cyclohexyl]phenyl}pyrimidin-2-amine] | 12 | 2200 |
| CS(=O)(=O)c1ccc2c(C3(c4ccc(-c5cnc(N)nc5)cc4)CCC3)c[nH]c2c1 [Example 90, 5-(4-{1-[6-(methylsulfonyl)-1H-indol-3-yl]cyclobutyl}phenyl)pyrimidin-2-amine] | 0.75 | 170 |
| CCC(C)(c1ccc(-c2cnc(N)nc2)cc1)c1c[nH]c2ccccc12 (centres unmarked) [Example 91, 5-{4-[2-(1H-indol-3-yl)butan-2-yl]phenyl}pyrimidin-2-amine] | 2.7 | 230 |
